We go through 4 compounds from US10344026B2, “Compositions and methods of targeting mutant K-ras” (NANTBIO, INC., priority 2017, dated 2019).

What all share (assay type): cell-based
Test [1] deals with phospho-ERK in HCC827 (Wild-type). As to the kind of experiment: In-Cell Western phospho-ERK, HCC827. The settings on record: Homo sapiens, 1 h; HCC827, one hour treatment; read-out: In-Cell Western HCC827 (Wild-type) Erk (P). In short, it runs like this:
(§1)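 EC50 values come from immunofluorescence quantitation of phosphorylated ERK or Akt in fixed cells exposed to compound for one hour at 0.5% DMSO. Maximal inhibition is defined by 1 uM BEZ235 for Akt and 1 uM MEK Inhibitor II for ERK.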

A further test concerns HCT116-G31D. The experiment in a line: Viability assay (CellTiterBlue, 72 hr) HCT116. The settings on record: Homo sapiens, HCT-116, GI50, CellTiterBlue, HCT116 K-Ras G13D, read-out: 72 hr Cell Viability HCT116 (G13D). In short, it runs like this: (§2)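 Cells were seeded at 1000 per well and allowed 18 hr at 37 °C in CO2 before compound addition (final DMSO 0.5%). After 72 hr exposure, CellTiterBlue was added for 3 hr and fluorescence read at Ex550/Em590. GI50 values were calculated against DMSO (100%) and 100 uM tamoxifen (0%) controls.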

The next test addresses T1, K-Ras G12V (Homo sapiens, UniProt P01116, G12V).
T1 construct: expressed in transfected cells; host or cells: 293H cells
The experiment in a line: G-LISA Ras activation, 293H cells transfected with G12V mutant. Particulars: compound 1 hour. How it is done: 293H cells were seeded in 6-wells at 0.6×10^6 cells per well and transfected next day with 5 μg of Ras wild-type, or G12C, G12D or G12V mutant DNA plasmid vector using transfection reagent Lipofectamine 3000. Next day cells were treated with 3.125-25 μM of Ras compounds for 1 hour. Wild-type transfected cells were subsequently treated with 100 ng/ml EGF for 2 minutes. Cells were washed once in ice-cold PBS, lysed in complete lysis buffer on ice, and processed by G-LISA according to Cytoskeleton protocol.

In test [2] the test system is phospho-ERK in Panc1 (G12D). The experiment in a line: In-Cell Western phospho-ERK, Panc1. Particulars: Homo sapiens, PANC-1, 1 h; Panc1, one hour treatment; read-out: In-Cell Western Panc1 (G12D) Erk (P). In short, it runs like this:
as §1

Test [3] concerns Ishikawa (K-Ras wild type cell line). The experiment in a line: Viability assay (CellTiterBlue, 72 hr) Ishikawa. Particulars: Homo sapiens, GI50, CellTiterBlue, Ishikawa K-Ras wild-type. The gist of the method: as §2
A general note: Resazurin is reduced to fluorescent resorufin, in cell work by metabolically active cells.

Test [4] relates to phospho-Akt in Panc10.05 (G12D). As to the kind of experiment: In-Cell Western phospho-Akt, Panc10.05. Particulars: Homo sapiens, Panc1005, 1 h; Panc10.05, one hour treatment; read-out: In-Cell Western Panc10.05 (G12D) Akt (P). The gist of the method:
as §1

Test [5] has as its system phospho-ERK in Panc10.05 (G12D). As to the kind of experiment: In-Cell Western phospho-ERK, Panc10.05. Particulars: Homo sapiens, Panc1005, 1 h; Panc10.05, one hour treatment; read-out: In-Cell Western Panc10.05 (G12D) Erk (P). The gist of the method:
as §1

The test system of test [6] is phospho-Akt in Panc1 (G12D). As to the kind of experiment: In-Cell Western phospho-Akt, Panc1. The settings on record: Homo sapiens, PANC-1, 1 h; Panc1, one hour treatment; read-out: In-Cell Western Panc1 (G12D) Akt (P). In short, it runs like this:
as §1

For the next test, the system named is Panc1-G12D. The experiment in a line: Viability assay (CellTiterBlue, 72 hr) Panc1. Particulars: Homo sapiens, PANC-1, GI50, CellTiterBlue, Panc1 K-Ras G12D, read-out: 72 hr Cell Viability Panc1 (G12D). In short, it runs like this:
as §2

Test [7] deals with phospho-Akt in HCC827 (Wild-type). As to the kind of experiment: In-Cell Western phospho-Akt, HCC827. Particulars: Homo sapiens, 1 h; HCC827, one hour treatment; read-out: In-Cell Western HCC827 (Wild-type) Akt (P). In short, it runs like this: as §1
In a further test the test system is Panc10.05-G12D. As to the kind of experiment: Viability assay (CellTiterBlue, 72 hr) Panc10.05. The settings on record: Homo sapiens, Panc1005, GI50, CellTiterBlue, Panc10.05 K-Ras G12D, read-out: 72 hr Cell Viability Panc10.05 (G12D). In short, it runs like this: as §2
Test [8] relates to HCC827 (K-Ras wild type cell line). As to the kind of experiment: Viability assay (CellTiterBlue, 72 hr) HCC827. Particulars: Homo sapiens, GI50, CellTiterBlue, HCC827 K-Ras wild-type. The gist of the method: as §2
For another test, the target named is T2, K-Ras G12D (Homo sapiens, UniProt P01116, G12D).
T2 construct: expressed in transfected cells; host or cells: 293H cells
The experiment in a line: G-LISA Ras activation, 293H cells transfected with G12D mutant. The settings on record: compound 1 hour. In short, it runs like this:
(§3)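 Active Ras was quantified by G-LISA in lysates of 293H cells made the day after transfection with wild-type, G12D or G12V Ras plasmid (5 μg). Compounds were applied at 3.125-25 μM for 1 h; only the wild-type cells got a 2-min 100 ng/ml EGF pulse before lysis.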

In a further test the target is T3, wild type K-Ras (Homo sapiens, UniProt P01116).
T3 construct: expressed in transfected cells; host or cells: 293H cells
As to the kind of experiment: G-LISA Ras activation, 293H cells transfected with Ras wild-type, EGF stimulated. The settings on record: compound 1 hour, then 100 ng/ml EGF 2 minutes. The gist of the method:
as §3

The subject of test [9] is U87-MG (K-Ras wild type cell line). As to the kind of experiment: Viability assay (CellTiterBlue, 72 hr) U87-MG. Particulars: Homo sapiens, U-87 MG, GI50, CellTiterBlue, U87-MG K-Ras wild-type. The gist of the method: as §2
Test [10] relates to A375 (K-Ras wild type cell line). The experiment in a line: Viability assay (CellTiterBlue, 72 hr) A375. Particulars: Homo sapiens, A-375, GI50, CellTiterBlue. In short, it runs like this:
as §2

The subject of test [11] is phospho-Akt in A375 (Wild-type). The experiment in a line: In-Cell Western phospho-Akt, A375. The settings on record: Homo sapiens, A-375, 1 h; A375, one hour treatment; read-out: In-Cell Western A375 (Wild-type) Akt (P). In short, it runs like this:
as §1

Test [12] has as its system phospho-ERK in A375 (Wild-type). The experiment in a line: In-Cell Western phospho-ERK, A375. Particulars: Homo sapiens, A-375, 1 h; A375, one hour treatment; read-out: In-Cell Western A375 (Wild-type) Erk (P). In short, it runs like this:
as §1

SMILES strings stand for the structures. pEC50, pIC50: −log10 of the molar value.

T3 sequence (P01116 whole entry): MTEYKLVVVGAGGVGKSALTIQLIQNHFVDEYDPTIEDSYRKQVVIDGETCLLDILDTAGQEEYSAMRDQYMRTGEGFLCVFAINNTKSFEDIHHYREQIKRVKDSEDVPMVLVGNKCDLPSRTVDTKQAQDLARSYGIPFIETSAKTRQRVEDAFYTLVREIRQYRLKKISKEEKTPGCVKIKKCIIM
T1 sequence (P01116 whole entry G12V): as the sequence (P01116 whole entry) above, with G12V counted along it
T2 sequence (P01116 whole entry G12D): as the sequence (P01116 whole entry) above, with G12D counted along it

The term IC50 denotes the concentration needed to halve the response being measured. A lower IC50 goes with greater potency in that assay. Take `CCc1nc(C)c(C(=O)Nc2nc(-c3ccc4c(c3)CCC(=O)N4Cc3cccnc3)cs2)o1` [Compound 64, 2-ethyl-4-methyl-N-(4-(2-oxo-1-(pyridin-3-ylmethyl)-1,2,3,4-tetrahydroquinolin-6-yl)thiazol-2-yl)oxazole-5-carboxamide]: the pEC50 is 5.15 in [1]; 5.30 in test [2]; less than 4.60 in test [4]; 5.05 in test [5]; 5.22 in test [6]; 4.82 in [7]. The pIC50 with HCT116-G31D is 5.30; in test [3], 5.46; with Panc1-G12D, 5.30; in the test with Panc10.05-G12D, 5.70; in [8] it was 5.00; in test [9] it was 5.70. Further, the results for the 50% inhibitory concentration (IC50) against K-Ras G12V, on K-Ras G12D and at wild type K-Ras were 9.6 µM, 3 µM and greater than 25 µM, respectively.
In the case of `Cc1nc(C(C)C)oc1C(=O)Nc1nc(-c2ccc3c(c2)CCC(=O)N3)cs1` [Compound 7, 2-isopropyl-4-methyl-N-(4-(2-oxo-1,2,3,4-tetrahydroquinolin-6-yl)thiazol-2-yl)oxazole-5-carboxamide], the pEC50 is less than 4.60 in [1]; less than 4.60 in test [2]; 5.10 in test [4]; less than 4.60 in test [11]; 5.40 in test [5]; less than 4.60 in [6]. The pEC50 in [12] was less than 4.60. For the same compound, the pIC50 in the test with HCT116-G31D was less than 4.60; in [10], less than 4.60; in test [3] it was less than 4.60; in the test on Panc1-G12D, 5.10; in the test on Panc10.05-G12D, 5.70; in [8], less than 4.60. Moreover, the pIC50 in test [9] was less than 4.60. For the same compound, the results for the 50% inhibitory concentration (IC50) on K-Ras G12V, at K-Ras G12D and against wild type K-Ras were greater than 25 µM, 4.8 µM and 11.7 µM, respectively.
With `CCc1nc(C)c(C(=O)Nc2nc(-c3ccc4c(c3)CCC(=O)N4Cc3ccccn3)cs2)o1` [Compound 63, 2-ethyl-4-methyl-N-(4-(2-oxo-1-(pyridin-2-ylmethyl)-1,2,3,4-tetrahydroquinolin-6-yl)thiazol-2-yl)oxazole-5-carboxamide], the pEC50 in test [1] is 5.22; in [2], 5.52; in [4], less than 4.60; in [5], 5.15; in [6], 5.40; in test [7] it was 5.00. Further, the pIC50 in the test on HCT116-G31D is 5.40; in [3] it was 5.40; in the test on Panc1-G12D it was 5.30; in the test with Panc10.05-G12D it was 5.70; in test [8], 5.30; in test [9], 5.82. The figures for the IC50 on K-Ras G12V, against K-Ras G12D and at wild type K-Ras were 9.8 µM, 5.6 µM and greater than 25 µM, respectively.
On to `Cc1nc(C)c(C(=O)Nc2nc(-c3ccc4c(c3)CCC(=O)N4CC3CCCOC3)cs2)o1` (stereo not shown) [Compound 66, 2,4-dimethyl-N-(4-(2-oxo-1-((tetrahydro-2H-pyran-3-yl)methyl)-1,2,3,4-tetrahydroquinolin-6-yl)thiazol-2-yl)oxazole-5-carboxamide], for which the pEC50 is 5.40 in [1]; 5.52 in test [2]; 4.74 in test [4]; 5.52 in test [5]; 5.70 in test [6]; 4.82 in [7]. Also, the pIC50 in the test on HCT116-G31D was 5.52; in test [3], 5.70; in the test on Panc1-G12D, 5.22; in the test on Panc10.05-G12D it was 5.70; in test [8] it was 5.40. Moreover, the 50% inhibitory concentration (IC50) against K-Ras G12V came out at 6.5 µM; at K-Ras G12D, 4.5 µM; against wild type K-Ras, 11.1 µM.
